Reference: ChEMBL document CHEMBL2203133 (J Med Chem, 2012)
One block for each compound: values may come before it.

How the values were obtained:
[1] = molecular target: T1, Serine/threonine-protein kinase Chk1 (Homo sapiens, UniProt O14757)
T1 sequence (O14757 whole entry): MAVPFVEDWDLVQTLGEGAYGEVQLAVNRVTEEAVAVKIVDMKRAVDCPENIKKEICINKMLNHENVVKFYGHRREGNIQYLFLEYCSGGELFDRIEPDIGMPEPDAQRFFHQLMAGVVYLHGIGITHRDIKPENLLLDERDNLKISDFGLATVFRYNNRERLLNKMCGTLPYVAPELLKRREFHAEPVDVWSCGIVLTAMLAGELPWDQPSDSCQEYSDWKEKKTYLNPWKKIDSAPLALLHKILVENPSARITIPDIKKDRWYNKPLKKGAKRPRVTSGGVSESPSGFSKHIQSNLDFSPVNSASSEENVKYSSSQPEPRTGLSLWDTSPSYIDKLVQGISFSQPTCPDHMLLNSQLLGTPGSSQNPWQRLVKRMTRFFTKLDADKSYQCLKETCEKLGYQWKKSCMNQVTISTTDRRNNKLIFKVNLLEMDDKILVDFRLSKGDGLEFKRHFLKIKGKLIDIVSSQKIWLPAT

[2] = molecular target: Voltage-gated inwardly rectifying potassium channel KCNH2 (Homo sapiens, UniProt Q12809)
Sequence of Voltage-gated inwardly rectifying potassium channel KCNH2 (Q12809 whole entry): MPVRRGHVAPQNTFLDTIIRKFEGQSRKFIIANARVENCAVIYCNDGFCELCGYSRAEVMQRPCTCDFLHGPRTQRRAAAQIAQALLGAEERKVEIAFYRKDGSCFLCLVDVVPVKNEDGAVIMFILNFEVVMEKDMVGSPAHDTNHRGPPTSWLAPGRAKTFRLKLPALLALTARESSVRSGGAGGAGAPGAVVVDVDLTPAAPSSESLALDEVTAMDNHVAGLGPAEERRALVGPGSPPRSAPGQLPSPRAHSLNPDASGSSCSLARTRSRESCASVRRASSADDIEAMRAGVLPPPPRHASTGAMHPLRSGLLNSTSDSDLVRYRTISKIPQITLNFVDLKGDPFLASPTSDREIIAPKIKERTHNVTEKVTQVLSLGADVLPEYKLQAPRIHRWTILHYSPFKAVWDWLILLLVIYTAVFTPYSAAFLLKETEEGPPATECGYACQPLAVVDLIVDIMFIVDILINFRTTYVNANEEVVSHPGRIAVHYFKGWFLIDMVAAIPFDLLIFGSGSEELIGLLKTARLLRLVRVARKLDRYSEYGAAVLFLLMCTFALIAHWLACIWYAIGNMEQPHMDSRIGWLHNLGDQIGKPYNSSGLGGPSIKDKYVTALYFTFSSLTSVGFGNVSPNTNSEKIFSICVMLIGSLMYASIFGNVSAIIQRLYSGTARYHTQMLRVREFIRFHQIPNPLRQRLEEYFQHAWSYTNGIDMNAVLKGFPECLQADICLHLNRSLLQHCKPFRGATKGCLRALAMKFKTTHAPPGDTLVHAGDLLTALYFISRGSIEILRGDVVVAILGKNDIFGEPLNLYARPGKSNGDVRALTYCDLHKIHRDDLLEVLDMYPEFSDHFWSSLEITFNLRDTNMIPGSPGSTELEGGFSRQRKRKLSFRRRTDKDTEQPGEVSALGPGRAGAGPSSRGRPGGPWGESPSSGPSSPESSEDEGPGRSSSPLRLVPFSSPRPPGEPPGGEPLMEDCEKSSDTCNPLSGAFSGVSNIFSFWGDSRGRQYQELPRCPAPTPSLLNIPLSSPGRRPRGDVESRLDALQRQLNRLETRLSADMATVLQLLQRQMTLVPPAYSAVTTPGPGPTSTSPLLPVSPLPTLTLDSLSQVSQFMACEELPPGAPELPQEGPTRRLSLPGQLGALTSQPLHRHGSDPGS

[3] = Plasma concentration in BALB/c mouse at 10 mg/kg, po at 1 hr; assay type: ADME, organism-based; parameters: dose 10 mg/kg, route oral
[4] = Plasma concentration in BALB/c mouse at 10 mg/kg, iv at 6 hrs administered as bolus dose; assay type: ADME, organism-based; parameters: dose 10 mg/kg, route intravenous
[5] = Plasma concentration in BALB/c mouse at 10 mg/kg, iv at 1 hr administered as bolus dose; assay type: ADME, organism-based; parameters: dose 10 mg/kg, route intravenous
in vitro = conditions: mouse, liver microsomes
[6] = Plasma concentration in BALB/c mouse at 10 mg/kg, po at 6 hrs; assay type: ADME, organism-based; parameters: dose 10 mg/kg, route oral
Calu-6 = experiment: Antitumor activity against human Calu6 cells xenografted in athymic mouse assessed as tumor growth delay at 100 mg/kg, iv tid for 7 days (reference value: 6.9 1.6); assay type: functional
Mus musculus [7] = experiment: Toxicity in athymic mouse xenografted with human Calu6 cells assessed as body weight loss at 100 mg/kg, iv tid for 7 days; assay type: organism-based, Calu-6; parameters: dose 100 mg/kg, route intravenous; conditions: in vivo, 168 h
SW-620 = experiment: Antitumor activity against human SW620 cells xenografted in athymic mouse assessed as tumor growth delay at 100 mg/kg, iv tid for 4 days (reference value: 5.3 1.3); assay type: functional
HT-29 = experiment: Antitumor activity against human HT-29 cells xenografted in athymic mouse assessed as tumor growth delay at 100 mg/kg, iv tid for 7 days (reference value: 8.8 4.8); assay type: functional
Mus musculus [8] = experiment: Toxicity in athymic mouse xenografted with human SW620 cells assessed as body weight loss at 100 mg/kg, iv tid for 4 days; assay type: organism-based, SW-620; parameters: dose 100 mg/kg, route intravenous; conditions: in vivo, 96 h
Mus musculus [9] = experiment: Toxicity in athymic mouse xenografted with human HT-29 cells assessed as body weight loss at 100 mg/kg, iv tid for 7 days; assay type: organism-based; parameters: dose 100 mg/kg, route intravenous; conditions: in vivo, 168 h
hERG (KCNH2) = hERG (KCNH2) (Homo sapiens, UniProt Q12809); experiment: Inhibition of human ERG overexpressed in HEK cells at 10 uM; assay type: cell-based, HEK293; conditions: HEK cells overexpressing human ERG
Sequence of hERG (KCNH2) (Q12809 whole entry): as above

IC50 [1]: 20 nM
SMILES: CNc1cc(Nc2cnc(C#N)c(O[C@H](C)CN(C)C)n2)ncc1Cl
IC50 [2]: 1 µM

concentration at 1 h [3]: 439 nM | concentration at 6 h [4]: 7 nM | concentration at 1 h [5]: 833 nM | IC50 [1]: 11 nM | metabolised at 0.5 h (in vitro): 40% | concentration at 6 h [6]: 6 nM
SMILES: C#Cc1cnc(Nc2cnc(C#N)c(O[C@H](C)CN(C)C)n2)cc1NC

IC50 [1]: 8.8 nM
SMILES: COC(=O)c1cnc(Nc2cnc(C#N)c(O[C@@H]3CCNC3)n2)cc1N(C)C
IC50 [2]: 30 µM

SMILES: Nc1ccn([C@@H]2O[C@H](CO)[C@@H](O)C2(F)F)c(=O)n1 [GEMCITABINE]
Time (Calu-6): 7.2 days | Activity (Mus musculus [7]): Non-toxic | Time (SW-620): 1.6 days | Time (HT-29): 2.3 days | Activity (Mus musculus [8]): Non-toxic | Activity (Mus musculus [9]): Non-toxic

concentration at 1 h [3]: 80 nM | concentration at 6 h [4]: 29 nM | concentration at 1 h [5]: 417 nM | IC50 [1]: 26 nM | metabolised at 0.5 h (in vitro): 42% | concentration at 6 h [6]: 8 nM
SMILES: CNc1cc(Nc2cnc(C#N)c(O[C@H](C)CN(C)C)n2)ncc1C1CC1
IC50 [2]: 6 µM

IC50 [1]: 2.9 nM
SMILES: CNc1cc(Nc2cnc(C#N)c(O[C@H](C)CN(C)C)n2)ncc1C#CC(C)(C)O
inhibition at 10 µM (hERG (KCNH2)): 59%

SMILES: C[C@H](CN(C)C)Oc1nc(Nc2cc3cccc(Cl)c3cn2)cnc1C#N
IC50 [2]: 5 µM

concentration at 1 h [3]: 18 nM | concentration at 6 h [4]: 8 nM | concentration at 1 h [5]: 147 nM | IC50 [1]: 3.4 nM | metabolised at 0.5 h (in vitro): 19% | concentration at 6 h [6]: 4 nM
SMILES: CNc1cc(Nc2cnc(C#N)c(O[C@H]3CCN(C)C3)n2)ncc1-c1cnn(C)c1

IC50 [1]: < 1 nM
SMILES: COc1cc(Nc2cnc(C#N)c(O[C@@H]3CCNC3)n2)ncc1-c1cnn(C)c1

IC50 [1]: 7 nM | metabolised at 0.5 h (in vitro): 49%
SMILES: CNc1cc(Nc2cnc(C#N)c(O[C@H](C)CN(C)C)n2)ncc1C(=O)OC
IC50 [2]: 5 µM

IC50 [1]: 97 nM
SMILES: CNc1ccnc(Nc2cnc(C#N)c(O[C@H](C)CN(C)C)n2)c1
inhibition at 10 µM (hERG (KCNH2)): 71%
